US20140086939A1, “COMPOSITIONS AND METHODS FOR DETECTING AND TREATING CANCER” (priority 2011, published 2014)
“Also recorded” adds a separate entry of the source. One block for each compound: values may come before it.

What was measured:
[1] = system: Ikkβ^f/f and Ikkβ^Δ dih10 cells; experiment: Subcutaneous tumor growth of implanted dih10 hepatoma cells in C57BL/6 mice; type: in vivo, mouse
Method: FIG. 20. IKKβ deletion in initiated cells enhances proliferation and self-renewal of HCC progenitors. (A) DEN-induced HCC (dih) cell strains from Ikkβ^f/f mice were cultured and infected with Adv-GFP or Adv-Cre. Whole cell lysates of infected dih10 cells were immunoblotted for IKKβ (bottom panel). The cells were further cultured without serum on Petri dishes to form hepatospheres (upper panels). Numbers of 1^0 and 2^0 hepatospheres formed per 100 plated cells were determined (n=3; *: p<0.05). Magnification bar=100 μm. (B) Ikkβ^f/f dih10 cells were infected with an empty retrovirus (vector) or a retrovirus expressing IκBα super-repressor (SR). Stably transfected cells were selected and cultured as above and hepatosphere formation was analyzed (n=3; *: p<0.05). (C, D) IKKβ expressing (Ikkβ^f/f) and deficient (Ikkβ^Δ) dih10 cells (2.5×10^6 each) were s.c. injected into 8 weeks old C57BL/6 mice. (C) Allograft volume was measured weekly (n=5; *: p<0.01). Dissected tumors are shown on the right. (D) BrdU incorporation into tumors was determined (n=5; *: p<0.05). (E) Ikkβ^f/f and Ikkβ^Δ dih12 cells were labeled with dsRed and 4×10^5 cells were seeded into MUP-uPA mouse livers. Relative amounts of dsRed DNA in transplanted MUP-uPA livers were determined by real-time PCR 3 weeks post-inoculation and normalized to actin DNA as a measurement of cell growth (n=5; *: p<0.05). (F) Ikkβ^Δ dih10 cells were reconstituted with a control vector or WT IKKβ expression vector and were s.c. injected into 8 weeks old C57BL/6 mice. Allograft volume was measured weekly (n=5; *: p<0.01). (G) Ikkβ^f/f and IkkβΔ dih10 cells were s.c. injected as above. Starting from day 2, mice were treated daily with MLN120B or vehicle by oral gavage. Tumor volume was measured weekly (n=5; *: p<0.01, f/f/control vs. f/f/MLN by one-way ANOVA). Please also see FIG. 27.
(§1) FIG. 22. ROS-mediated SHP1/2 inhibition in IKKβ-deficient HCCs correlates with STAT3 activation and accelerated tumor growth. (A) Tumors derived from Ikkβ^f/f (f/f) and Ikkβ^Δ (Δ) dih10 cells were collected and lysed. Tumor lysates were immunoprecipitated with an anti-JAK2 antibody and examined for JAK2 tyrosine phosphorylation with PY20 antibody. Tumor lysates were also used for immunoblot analyses with the indicated antibodies. (B) SHP1 and SHP2 were immunoprecipitated from above tumor lysates and their phosphatase activities were measured (n=4; *: p<0.05). (C) Fresh frozen sections of HCCs from transplanted MUP-uPA mice were analyzed for superoxide accumulation by DHE staining. Fluorescence intensity in several fields was quantitated by ImageJ and relative average increases in fluorescent intensity are shown (n=3; *: p<0.01). Magnification bar=100 μm. (D-F) Ikkβ^f/5 (f/f) and Ikkβ^Δ (Δ) dih10 cells […] each were s.c. implanted into 8 weeks old C57BL/6 mice. Starting on day 2, the mice were switched to a diet containing vehicle or BHA (0.7%) for 6 weeks. (D) Tumors were collected from BHA treated and untreated mice, lysed and SHP1/2 phosphatase activities were measured. The data were plotted as SHP1/2 phosphatase activities in Ikkβ^Δ tumors relative to activities in Ikkβ^f/f tumors (n=4; *: p<0.05). (E) Tumor lysates were used to determine JNK kinase activity and STAT3 phosphorylation. (F) Tumor volume was measured weekly (n=5; p<0.01, Δ/ctrl vs. Δ/BHA by one way ANOVA). Please also see FIG. 29.
FIG. 30. STAT3 is required for HCC formation and growth. (A-D) Ikkβ^f/f (f/f) and Ikkβ^Δ (Δ) dih10 cells were s.c. implanted into 8 weeks old C57BL/6 mice. (A) Starting on day 2, the mice were i.p. injected with vehicle (ctrl) or 0.5 mg/mouse AG490 daily. Tumor volume was measured (n=5; p<0.05, f/f/vehicle vs. f/f/AG490; p<0.01, Δ/vehicle vs. Δ/AG490 by one way ANOVA). (B) After 6 weeks, tumors were removed, lysed and analyzed by immunoblotting with the indicated antibodies. […] (D) After 6 weeks, tumors were removed and analyzed as above. […]

JNK = JNK kinase activity in lysates of dih10 tumors; type: in vivo, mouse; conditions: diet containing BHA (0.7%) for 6 weeks
Source text: as §1, with “Starting on day 2, the mice were switched to a diet containing vehicle or BHA (0.7%) for 6 weeks.” left out, “The data were plotted as SHP1/2 phosphatase activities in Ikkβ^Δ tumors relative to activities in Ikkβ^f/f tumors (n=4; *: p<0.05). (E) Tumor lysates were used to determine JNK kinase activity and STAT3 phosphorylation.” left out, “Please also see FIG. 29.” left out
(§2) RNA extraction and q-PCR were described (Sakurai et al., 2006). […] SHP1/2 phosphatase activities were determined as described (Lee and Esselman, 2002).

JAK2 = JAK2 phosphorylation in IKKβ-deficient tumors; type: in vivo, mouse; conditions: BHA treatment of tumor-bearing mice
Source text: as §1, with “The data were plotted as SHP1/2 phosphatase activities in Ikkβ^Δ tumors relative to activities in Ikkβ^f/f tumors (n=4; *: p<0.05). (E) Tumor lysates were used to determine JNK kinase activity and STAT3 phosphorylation.” left out, “Please also see FIG. 29.” left out

STAT3 = target: T1, STAT3 (Mus musculus, UniProt P42227); experiment: STAT3 phosphorylation in lysates of dih10 tumors (immunoblot); type: in vivo
T1 construct: from tissue; host or cells: subcutaneous tumors formed by Ikkβf/f or IkkβΔ dih10 cells in C57BL/6 mice
Method: (A) Tumors derived from Ikkβ^f/f (f/f) and Ikkβ^Δ (Δ) dih10 cells were collected and lysed. Tumor lysates were immunoprecipitated with an anti-JAK2 antibody and examined for JAK2 tyrosine phosphorylation with PY20 antibody. Tumor lysates were also used for immunoblot analyses with the indicated antibodies. (B) SHP1 and SHP2 were immunoprecipitated from above tumor lysates and their phosphatase activities were measured (n=4; *: p<0.05). (C) Fresh frozen sections of HCCs from transplanted MUP-uPA mice were analyzed for superoxide accumulation by DHE staining. Fluorescence intensity in several fields was quantitated by ImageJ and relative average increases in fluorescent intensity are shown (n=3; *: p<0.01). Magnification bar=100 μm. (D-F) Ikkβ^f/5 (f/f) and Ikkβ^Δ (Δ) dih10 cells 2.5×10^8 each were s.c. implanted into 8 weeks old C57BL/6 mice. Starting on day 2, the mice were switched to a diet containing vehicle or BHA (0.7%) for 6 weeks. (D) Tumors were collected from BHA treated and untreated mice, lysed and SHP1/2 phosphatase activities were measured. The data were plotted as SHP1/2 phosphatase activities in Ikkβ^Δ tumors relative to activities in Ikkβ^f/f tumors (n=4; *: p<0.05). (E) Tumor lysates were used to determine JNK kinase activity and STAT3 phosphorylation. (F) Tumor volume was measured weekly (n=5; p<0.01, Δ/ctrl vs. Δ/BHA by one way ANOVA).
Antibodies used were: anti-IKKβ (Upstate), anti-JNK1/2 (Pharmingen), anti-c-Jun (Santa Cruz), anti-ERK, and anti-phospho-ERK (Cell Signaling), anti-STAT3 (Santa Cruz), anti-phospho-STAT3 (Cell signaling), anti-Albumin (Novus), anti-SHP1 (Santa Cruz), anti-SHP2 (Cell signaling), anti-SOCS3 (Immuno-Biological Laboratories), anti-phospho-p65 (Cell signaling). […] To measure SHP1/2 phosphatase activities, SHP1 and SHP2 were immunoprecipitated from freshly prepared lysates. Dithiothreitol (DTT) and other reducing agents were excluded from all buffers. SHP1/2 phosphatase activities were determined as described (Lee and Esselman, 2002).

SHP1 and SHP2 = experiment: SHP1/2 phosphatase activities in lysates of dih10 tumors; type: in vivo, mouse; conditions: diet containing BHA (0.7%) for 6 weeks
Source text: as §1, with “Starting on day 2, the mice were switched to a diet containing vehicle or BHA (0.7%) for 6 weeks.” left out, “The data were plotted as SHP1/2 phosphatase activities in Ikkβ^Δ tumors relative to activities in Ikkβ^f/f tumors (n=4; *: p<0.05). (E) Tumor lysates were used to determine JNK kinase activity and STAT3 phosphorylation.” left out, “Please also see FIG. 29.” left out
as §2

liver [2] = conditions: cited from earlier work
[3] = system: many different types of cancer cells transplanted into mice; conditions: in vivo; cited from earlier work
[4] = system: STAT3 phosphorylation in Ikkβ^f/f dih10 cells; experiment: IL-6 induced STAT3 phosphorylation by immunoblotting in dih10 cells; type: cell-based, mouse; conditions: dih cells serum starved 48 hrs; 20 μM MLN120B; 10 ng/ml IL-6 30 min
Method: (§3) FIG. 28. IKKβ ablation enhances STAT3 activation. (A) Ikkβ^f/f and Ikkβ^Δ dih10 cells were cultured under hepatosphere-forming conditions for 3 days and treated with 10 ng/ml of IL-6 for the indicated times. Whole cell lysates were analyzed by immunoblotting for STAT3 phosphorylation. (B) Ikkβ^f/f and Ikkβ^Δ dih10 cells were cultured under hepatosphere-forming conditions for 3 days and treated with 10 ng/ml of IL-22 for 30 min. STAT3 phosphorylation was analyzed as above. (C) Ikkβ^Δ dih10 cells were cultured under hepatosphere-forming conditions and infected with a control Adv or an Adv vector expressing constitutively active IKKβ^EE. The cells were treated with 10 ng/ml of IL-6 for 15 min and STAT3 phosphorylation was analyzed. (D) Ikkβ^f/f dih10 cells and HepG2 cells were serum starved for 48 hrs and treated with 20 μM MLN120B for the indicated times. The cells were then stimulated with 10 ng/ml of IL-6 for 30 min and STAT3 phosphorylation was analyzed by immunoblotting. Relative activities (RA) of STAT3 phosphorylation were determined by densitometry. (E) Ikkβ^f/f (f/f) and Ikkβ^Δ (Δ) HCCs from transplanted MUP-uPA mice were collected and total RNA was extracted. Expression of IL-6 and IL-22 mRNAs was measured by RT PCR.
as §2

[5] = system: STAT3 phosphorylation in HepG2 cells; experiment: IL-6 induced STAT3 phosphorylation by immunoblotting in HepG2 cells; type: cell-based; conditions: human liver cancer cell line (HepG2) serum starved 48 hrs; 20 μM MLN120B; 10 ng/ml IL-6 30 min
Method: as §3, §2

liver [6] = conditions: cited from earlier work; remark: listed apart in the source
[7] = system: human breast cancer cell line with constitutive STAT3 activity; conditions: in vivo; cited from earlier work
Huh-7 = conditions: 5 mg/kg given every other day; cited from earlier work
[8] = diet containing BHA (0.7%) for 6 weeks
[9] = s.c. dih10 in C57BL/6, MLN120B daily by oral gavage from day 2
[10] = AG490 0.5 mg/mouse i.p. daily from day 2

T1 sequence (P42227 whole entry): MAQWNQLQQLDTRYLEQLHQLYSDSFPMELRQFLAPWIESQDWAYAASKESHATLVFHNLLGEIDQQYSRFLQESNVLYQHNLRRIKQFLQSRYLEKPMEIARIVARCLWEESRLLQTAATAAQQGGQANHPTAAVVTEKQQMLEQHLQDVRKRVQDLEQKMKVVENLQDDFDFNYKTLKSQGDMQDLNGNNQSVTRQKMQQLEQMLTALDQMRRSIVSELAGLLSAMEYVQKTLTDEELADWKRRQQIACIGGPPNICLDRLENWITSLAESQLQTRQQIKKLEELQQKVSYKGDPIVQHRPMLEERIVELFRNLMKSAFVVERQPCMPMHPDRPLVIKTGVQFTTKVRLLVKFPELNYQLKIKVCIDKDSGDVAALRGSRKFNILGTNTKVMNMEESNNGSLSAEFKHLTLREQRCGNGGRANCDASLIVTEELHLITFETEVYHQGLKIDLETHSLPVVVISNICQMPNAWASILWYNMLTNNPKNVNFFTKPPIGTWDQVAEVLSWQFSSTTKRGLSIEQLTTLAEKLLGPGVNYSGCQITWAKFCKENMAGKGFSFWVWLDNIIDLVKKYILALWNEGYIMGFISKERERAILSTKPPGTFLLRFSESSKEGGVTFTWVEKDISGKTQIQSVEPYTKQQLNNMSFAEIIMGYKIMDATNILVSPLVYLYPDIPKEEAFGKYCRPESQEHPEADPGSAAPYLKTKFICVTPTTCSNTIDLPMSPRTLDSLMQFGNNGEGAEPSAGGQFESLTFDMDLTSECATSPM

SMILES: COc1ccc(O)c(C(C)(C)C)c1 [BHA, butylated hydroxyanisole]
Ikkβ^Δ tumor growth [1, 8]: inhibits tumor growth; also recorded: reduced Ikkβ^Δ tumor growth to a level that was similar to that of Ikkβ^f/f tumors in untreated mice
JNK activity in tumors (JNK): reduced JNK activity
JAK2 phosphorylation in IKKβ-deficient tumors (JAK2): reduces
STAT3 phosphorylation in tumors (STAT3; [8]): reduced
SHP1/2 phosphatase activities in IKKβ-deficient tumors (SHP1 and SHP2): restores SHP1/2 activity; also recorded: completely restored
liver damage, compensatory proliferation and hepatocarcinogenesis (liver [2]; Ikkβ^Δhep and Ikkγ^Δhep mutant mice, BHA consumption): reversed
ROS accumulation in the liver (liver [2]; dietary administration): can be prevented

SMILES: Cc1cc(Nc2nc(N[C@@H](C)c3ncc(F)cn3)ncc2Cl)n[nH]1 [AZD1480]
tumorigenic growth of cancer cells transplanted into mice [3]: Effective inhibition

SMILES: COc1c(Cl)cc2c([nH]c3cnccc32)c1NC(=O)c1cccnc1C [MLN120B]
tumorigenic growth (tumor volume) of Ikkβ^f/f dih cells [1, 9]: enhanced tumorigenic growth
tumorigenic growth (tumor volume) of Ikkβ^Δ dih cells [1, 9]: not Ikkβ^Δ cells
IL-6 induced STAT3 activation [4]: enhanced IL-6 induced STAT3 activation
IL-6 induced STAT3 activation [5]: enhanced IL-6 induced STAT3 activation

SMILES: CCN(CC)N=O [DEN, diethyl nitrosamine]
HCC induction (liver [6]; male mice older than 4 weeks of age): no longer effective in HCC induction on its own
HCC induction, fraction of male mice (liver [6]; single dose to two-weeks-old mice): 100%

SMILES: Cc1ccc(S(=O)(=O)OCC(=O)Nc2ccc(C(=O)O)c(O)c2)cc1 [S3I-201]
in vivo tumorigenic growth of dih cells [1]: effective inhibition
tumor growth of breast cancer xenografts [7]: inhibition of tumor growth
STAT3 tyrosine phosphorylation in Huh-7 xenografts (Huh-7): inhibited
tumor growth of Huh-7 xenografts (Huh-7): inhibited

STAT3 activity in dih cell tumors (STAT3): effective inhibition
SMILES: N#C/C(=C/c1ccc(O)c(O)c1)C(=O)NCc1ccccc1 [AG490]
in vivo tumorigenic growth of dih cells [1]: effective inhibition
Ikkβ^f/f tumorigenic growth [1, 10]: more modest effect
growth of Ikkβ^Δ subcutaneous tumors [1, 10]: inhibited the growth
STAT3 phosphorylation in tumors (STAT3; AG490 0.5 mg/mouse i.p. daily, tumors after 6 weeks, both IKKβ status): inhibited STAT3 phosphorylation regardless of IKKβ status
